From ChEMBL document CHEMBL1147919, “Syntheses and binding affinities of 6-nitroquipazine analogues for serotonin transporter. Part 5: 2'-Substituted 6-nitroquipazines” (Bioorg Med Chem, 2007)

Molecular target: Sodium-dependent serotonin transporter (Rattus norvegicus, UniProt P31652)
Assay: Displacement of [3H]citalopram from Sprague-Dawley rat SERT

Sequence of Sodium-dependent serotonin transporter (P31652 whole entry): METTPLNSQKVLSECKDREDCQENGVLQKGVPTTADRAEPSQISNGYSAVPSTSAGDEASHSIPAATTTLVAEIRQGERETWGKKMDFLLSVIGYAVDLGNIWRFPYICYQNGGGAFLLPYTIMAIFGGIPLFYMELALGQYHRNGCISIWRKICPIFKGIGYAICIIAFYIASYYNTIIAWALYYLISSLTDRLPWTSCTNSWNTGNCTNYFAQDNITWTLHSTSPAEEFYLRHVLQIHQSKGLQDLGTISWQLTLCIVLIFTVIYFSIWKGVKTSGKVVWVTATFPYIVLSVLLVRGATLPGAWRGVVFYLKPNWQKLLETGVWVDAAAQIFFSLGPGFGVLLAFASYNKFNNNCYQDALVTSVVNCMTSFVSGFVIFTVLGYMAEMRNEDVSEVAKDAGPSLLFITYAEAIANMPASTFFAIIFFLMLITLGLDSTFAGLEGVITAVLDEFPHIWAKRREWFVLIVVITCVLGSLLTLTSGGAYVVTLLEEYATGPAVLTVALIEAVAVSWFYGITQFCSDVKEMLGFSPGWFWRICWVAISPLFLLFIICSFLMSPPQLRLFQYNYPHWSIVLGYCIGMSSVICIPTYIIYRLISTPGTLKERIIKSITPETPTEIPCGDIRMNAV

Row | SMILES | Ki [nM]
1 | CCCOCC1CNCCN1c1ccc2cc([N+](=O)[O-])ccc2n1 (stereo unspecified) | 5.67
2 | CCOCC1CNCCN1c1ccc2cc([N+](=O)[O-])ccc2n1 (stereo unspecified) | 0.43
3 | O=[N+]([O-])c1ccc2nc(N3CCNCC3)ccc2c1 [6-NITROQUIPAZINE] | 0.24

More lines, in order of falling Ki, values ahead:

Row | Ki [nM] | SMILES
4 | 15.4 | CCCCOCC1CNCCN1c1ccc2cc([N+](=O)[O-])ccc2n1 (stereo unspecified)
5 | 0.68 | COCC1CNCCN1c1ccc2cc([N+](=O)[O-])ccc2n1 (stereo unspecified)
6 | 0.43 | O=[N+]([O-])c1ccc2nc(N3CCNCC3CO)ccc2c1 (stereo unspecified)
